# From patent US7589066B2, “Potent and specific immunoproteasome inhibitors” (The University of North Carolina at Chapel Hill, priority 2005, dated 2009)
# Read-outs that look alike come from different tables or passages of the source. Square brackets hold non-standard residues; d marks the D form. Peptide text beside a SMILES is read from it. * marks the point of attachment. hPhe = N[CH](CCc1ccccc1)C(=O)O; Cbz = O=C(OCc1ccccc1)*
# Legend:
# [1] = system: NCI-H929 human myeloma cells; assay: Proteasome inhibitor-induced apoptosis, ELISA of apoptotic nuclear DNA fragmentation; type: cell-based; conditions: 18 hours
# Procedure: (§1) Cultured NCI-H929 human myeloma cells, IM-9 human B-lymphoblasts, HPAC human pancreatic adenocarcinoma cells, and Hs 294T human melanoma cells were exposed to vehicle, 5 nM bortezomib (PS-341), or 50 μM Cbz-LnL-CHO for 18 hours. Apoptosis was evaluated using an enzyme-linked immunosorbent assay that detects apoptotic nuclear DNA fragmentation. Cell death is expressed as the fold-increase in apoptosis over the vehicle control, which was arbitrarily set at 1.0. Referring now to FIG. 2, the effect of PS-341 is shown in the open bar graphs, while Cbz-LnL-CHO (IPSI-001) is in the stippled bar graphs. The mean and standard error of the mean are shown for each condition from four independent experiments.
# [2] = system: HPAC human pancreatic adenocarcinoma cells; assay: as above; type: cell-based; conditions: 5 nM, 18 hours
# Procedure: as §1
# [3] = system: IM-9 human B-lymphoblasts; assay: as above; type: cell-based; conditions: 18 hours
# Procedure: as §1
# [4] = system: Hs 294T human melanoma cells; assay: as above; type: cell-based; conditions: 5 nM, 18 hours
# Procedure: as §1
# myeloma = conditions: phase II study that led to FDA approval; cited from earlier work
# [5] = biological target: T1, proteasome from pituitary tissue (X/Y/Z isoform, constitutive proteasome), chymotrypsin-like (ChT-L) activity (Bos taurus, UniProt Q32KL2); assay: Inhibition of ChT-L activity of pituitary proteasome (constitutive proteasome); type: biochemical; conditions: substrate Cbz-GGF-pAB; for IC50: read-out: IC50 instead of Ki (†), Pituitary Proteasome, ChT-L component; for Ki: Dixon plots, without preincubation, read-out: Ki (μM) Pituitary Proteasome, ChT-L component
# T1 construct: the proteasome from pituitary tissue, representative of the X/Y/Z isoform; from tissue; host or cells: pituitary
# From the text: (§2) To investigate the possibility that inhibitors specific for the immunoproteasome could be identified, the proteasome from pituitary tissue, representative of the X/Y/Z isoform (i.e., the constitutive proteasome), and the proteasome from spleen tissue, representative of the LMP-2/7/10 isoform (i.e., the immunoproteasome), were each purified to homogeneity. A panel of peptidyl-aldehyde substrate-related inhibitors were then screened for their ability to inhibit the chymotrypsin-like (ChT-L) and branched chain amino acid preferring (BrAAP) activities of these two proteasome preparations.
# (§3) […] Determinations were carried out at three substrate concentrations and at six different inhibitor concentrations without preincubation of the enzyme with inhibitors. Substrate concentrations were 0.1 to 0.4 mM for the BrAAP activity of the spleen, and 0.5 to 4.0 mM for the ChT-L activity, and 1.0 to 4.0 mM for all others. The substrate for the BrAAP activity was Cbz-GPALG-pAB, and Cbz-GGF-pAB for the ChT-L activity. Data are averages±standard error, with the number of determinations shown in parentheses.
# as §3, with “for the […] activity of” for “for the BrAAP activity of”, “in parentheses. † indicates IC50 instead of Ki. NI indicates no inhibition in the tested range.” for “in parentheses.”
# as §3, with “parentheses. † indicates IC50 instead of Ki. NI indicates no inhibition in the tested range.” for “parentheses.”
# [6] = biological target: T2, proteasome from spleen tissue (LMP-2/7/10 isoform, immunoproteasome), chymotrypsin-like (ChT-L) activity (UniProt Q3T112); assay: Inhibition of ChT-L activity of spleen proteasome (immunoproteasome); type: biochemical
# T2 construct: Ki (μM) Spleen Proteasome, ChT-L component; other: substrate Cbz-GGF-pAB, Dixon plots, without preincubation; other: substrate Cbz-GGF-pAB
# T2 sequence (Q3T112 1-276): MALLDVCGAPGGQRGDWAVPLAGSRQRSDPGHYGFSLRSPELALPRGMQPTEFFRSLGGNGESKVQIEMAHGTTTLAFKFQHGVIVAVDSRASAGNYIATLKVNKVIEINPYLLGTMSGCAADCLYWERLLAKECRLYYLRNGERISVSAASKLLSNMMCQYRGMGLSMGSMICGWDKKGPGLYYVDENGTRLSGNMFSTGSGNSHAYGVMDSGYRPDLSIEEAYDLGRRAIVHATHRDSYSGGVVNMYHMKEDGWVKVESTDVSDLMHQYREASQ
# From the text: as §2, with “preparations. […] The same was true for Cbz-FL-CHO, the peptide aldehyde version of bortezomib.” for “preparations.”
# (§4) Dixon plots were used to obtain Ki values. Determinations were carried out at three substrate concentrations and at six different inhibitor concentrations without preincubation of the enzyme with inhibitors. Substrate concentrations were 0.1 to 0.4 mM for the BrAAP activity of the spleen, and 0.5 to 4.0 mM for the ChT-L activity, and 1.0 to 4.0 mM for all others. The substrate for the BrAAP activity was Cbz-GPALG-pAB, and Cbz-GGF-pAB for the ChT-L activity. Data are averages±standard error, with the number of determinations shown in parentheses.
# as §4, with “for the […] activity of” for “for the BrAAP activity of”, “in parentheses. † indicates IC50 instead of Ki. NI indicates no inhibition in the tested range.” for “in parentheses.”
# as §4, with “parentheses. † indicates IC50 instead of Ki. NI indicates no inhibition in the tested range.” for “parentheses.”
# [7] = system: proteasome from spleen tissue (LMP-2/7/10 isoform, immunoproteasome), chymotrypsin-like (ChT-L) activity; assay: as above; type: biochemical; conditions: spleen versus pituitary proteasome, in vitro
# From the text: as §2, with “preparations. […] The same was true for Cbz-FL-CHO, the peptide aldehyde version of bortezomib.” for “preparations.”
# as §4
# as §4, with “for the […] activity of” for “for the BrAAP activity of”, “in parentheses. † indicates IC50 instead of Ki. NI indicates no inhibition in the tested range.” for “in parentheses.”
# as §4, with “parentheses. † indicates IC50 instead of Ki. NI indicates no inhibition in the tested range.” for “parentheses.”
# [8] = system: proteasome from spleen tissue (LMP-2/7/10 isoform, immunoproteasome), branched chain amino acid preferring (BrAAP) activity; assay: Inhibition of BrAAP activity of spleen proteasome (immunoproteasome); type: biochemical; conditions: spleen versus pituitary proteasome, in vitro
# From the text: as §2, with “preparations. […] The same was true for Cbz-FL-CHO, the peptide aldehyde version of bortezomib.” for “preparations.”
# as §4
# Dixon plots were used to obtain Ki values. […]
# [9] = substrate Cbz-GGF-pAB, Dixon plots, without preincubation; read-out: Ki (μM) Spleen Proteasome, ChT-L component
# [10] = read-out: Ki (μM) Spleen Proteasome, ChT-L component; substrate Cbz-GGF-pAB, Dixon plots, without preincubation
Compound,IC50 [5],Ki [5],"Ki [6, 9]",further results
"CC(C)C[C@H](NC(=O)[C@H](Cc1ccccc1)NC(=O)c1cnccn1)B(O)O [Bortezomib, reference compound]",,,,"induction of apoptosis (fold-increase over the vehicle control) ([1]; NCI-H929, 5 nM): induces apoptosis roughly equally in all of the cell lines tested; induction of apoptosis (fold-increase over the vehicle control) [2]: induces apoptosis roughly equally in all of the cell lines tested; induction of apoptosis (fold-increase over the vehicle control) ([3]; IM-9, 5 nM): induces apoptosis roughly equally in all of the cell lines tested; induction of apoptosis (fold-increase over the vehicle control) [4]: induces apoptosis roughly equally in all of the cell lines tested; patients with myeloma with partial responses or better (myeloma): 28%"
"CC(NC(=O)OCc1ccccc1)C(=O)NC(C=O)Cc1ccccc1 (stereo not drawn) [Cbz-AF-CHO, N-carbobenzyloxy-alanyl-phenylalanylal]",380 µM,,,"IC50 ([6]; substrate Cbz-GGF-pAB; read-out: IC50 instead of Ki (†), Spleen Proteasome, ChT-L component): 24 µM"
"O=CC(Cc1ccccc1)NC(=O)C(Cc1ccccc1)NC(=O)OCc1ccccc1 (stereo not drawn) [Cbz-FF-CHO, N-carbobenzyloxy-phenylalanyl-phenylalanylal] (Cbz-Phe-Phe-aldehyde; configuration not given here)",,56 ± 4.4 µM,4 ± 0.27 µM,
"CC(C)CC(C=O)NC(=O)C(Cc1ccccc1)NC(=O)OCc1ccccc1 (stereo not drawn) [Cbz-FL-CHO, reference compound] (Cbz-Phe-Leu-aldehyde; configuration not given here)",,5.55 ± 0.47 µM,2.1 ± 0.29 µM,
"O=CC(Cc1ccccc1)NC(=O)C(Cc1ccccc1)NC(=O)CNC(=O)OCc1ccccc1 (stereo not drawn) [Cbz-GFF-CHO, N-carbobenzyloxy-glycyl-phenylalanyl-phenylalanylal] (Cbz-Gly-Phe-Phe-aldehyde; configuration not given here)",2.7 µM,,,"IC50 ([6]; read-out: IC50 instead of Ki (†), Spleen Proteasome, ChT-L component; substrate Cbz-GGF-pAB): 1.03 µM"
"CC(NC(=O)C1CCCN1C(=O)CNC(=O)OCc1ccccc1)C(=O)NC(C=O)Cc1ccccc1 (stereo not drawn) [Cbz-GPAF-CHO, N-carbobenzyloxy-glycyl-prolyl-alanyl-phenylalanylal] (Cbz-GPAF-aldehyde; configuration not given here)",,460 ± 66 µM,,"Ki [6, 10]: 8.4 ± 0.52 µM"
"O=CC(Cc1ccccc1)NC(=O)C(Cc1ccccc1)NC(=O)C1CCCN1C(=O)CNC(=O)OCc1ccccc1 (stereo not drawn) [Cbz-GPFF-CHO, N-carbobenzyloxy-glycyl-prolyl-phenylalanyl-phenylalanylal] (Cbz-GPFF-aldehyde; configuration not given here)",,58 ± 1.8 µM,,"Ki [6, 10]: 5.6 ± 1.1 µM"
"CC(C)CC(C=O)NC(=O)C(C)NC(=O)C(CC(C)C)NC(=O)OCc1ccccc1 (stereo not drawn) [Cbz-LAL-CHO, reference compound] (Cbz-Leu-Ala-Leu-aldehyde; configuration not given here)",,0.82 ± 0.15 µM,1.45 ± 1.05 µM,
"CC(C)CC(NC(=O)OCc1ccccc1)C(=O)NC(C=O)Cc1ccccc1 (stereo not drawn) [Cbz-LF-CHO, N-carbobenzyloxy-leucyl-phenylalanylal] (Cbz-Leu-Phe-aldehyde; configuration not given here)",154 µM,,5.6 ± 0.2 µM,
"CC(C)CC(NC(=O)OCc1ccccc1)C(=O)NC(CC(C)C)C(=O)NC(C=O)Cc1ccccc1 (stereo not drawn) [Cbz-LLF-CHO, N-carbobenzyloxy-leucyl-leucyl-phenylalanylal] (Cbz-Leu-Leu-Phe-aldehyde; configuration not given here)",,1.6 ± 0.5 µM,,"Ki [6, 10]: 5.97 ± 1.4 µM"
"CC(C)C[C@@H](C=O)NC(=O)[C@H](CC(C)C)NC(=O)[C@H](CC(C)C)NC(=O)OCc1ccccc1 [Cbz-LLL-CHO, reference compound] (Cbz-Leu-Leu-Leu-aldehyde)",,6.9 ± 0.84 µM,5.1 ± 0.9 µM,
"CCCCC(C=O)NC(=O)C(CC(C)C)NC(=O)OCc1ccccc1 (stereo not drawn) [Cbz-LnL-CHO, N-carbobenzyloxy-leucyl-norleucinal]",,105 ± 1.3 µM,1.03 ± 0.17 µM,"preference for the LMP-containing ChT-L proteasome activity [7]: greater than 100 fold; induction of apoptosis (fold-increase over the vehicle control) ([1]; NCI-H929, 50 μM): induces significant apoptosis; induction of apoptosis (fold-increase over the vehicle control) ([3]; IM-9, 50 μM): induces significant apoptosis; preference for the LMP-containing BrAAP proteasome activity [8]: greater than 160 fold"
"O=CC(Cc1ccccc1)NC(=O)C(CCc1ccccc1)NC(=O)OCc1ccccc1 (stereo not drawn) [Cbz-hFF-CHO, N-carbobenzyloxy-homophenylalanyl-phenylalanylal] (Cbz-[hPhe]-Phe-aldehyde; configuration not given here)",40 µM,,2.74 ± 0.33 µM,
